According to patent US9102669B2, “Substituted piperidinyl-pyridazinyl derivatives useful as SCD 1 inhibitors” (Janssen Pharmaceutica NV, priority 2011, dated 2015):
Values joined by “and” are separate entries in the source; they are usually repeats but may differ in a detail not shown here. Identical values can stand only once. Like-named read-outs stand apart in the source and are kept apart here.

Legend:
[1] = 4 week Zucker fa/fa rat study, body weight; format: in vivo; details: Zucker fa/fa rats
Experimental: Male Zucker fa/fa rats were housed one rat per cage in a temperature-controlled room with 12-hour light/dark cycle. The rats were fed on regular rodent diet (Purina 5008) and allowed ad libitum access to water. The experiment was initiated at an age of 8-9 week, and at body weight of about 350 g. Test compound was prepared in 0.5% HPMC for dosing q.d at 1 mg/kg, 3 mg/kg and 10 mg/kg, as noted in the table of results below. Body weight, food intake and fed blood glucose were monitored weekly. On day 26, all rats were given with the last dose 1 hr prior to the necropsy.

[2] = 10-day diet-induced obese C57bl/6 mice study, body weight change; format: in vivo, mouse; parameters: unit not given here; details: DIO C57BL/6J mice, oral 30 mg/kg once a day, after 10 days of treatment
Experimental: Male DIO C57BL/6J mice from Taconic were maintained on high fat diet D12492 containing 60% kCal of mostly saturated fats (Research Diets Inc.) for 4 week from 6-week old. Test compounds were prepared in 0.5% hydroxypropyl methyl cellulose for oral dosing at 30 mg/kg once a day. After 10-days of treatment, body weight change was recorded.
Representative compounds of the present invention were tested according to the procedure as described above, with results as listed in Table 7, below. In the results presented below, * indicates a calculated p value <0.05 vs. vehicle-treated group.

SCD1 [3] = target: SCD1 (Rattus norvegicus (Rat), UniProt P07308); assay: SCD1 enzymatic assay in rat liver microsomes (RLM); format: biochemical; details: for inhibition at 1 µM: read-out: % Inh.@ 1 μM
In short: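 Microsomes from livers of Sprague Dawley rats after fast/fat-free re-feeding cycles (10 μg per reaction) were incubated 2 h at room temperature with 20 μM stearoyl-CoA plus ^3H-stearoyl-CoA (2 μCi/mL), ATP, CoA, NADH and glutathione in 0.1 M K-phosphate, with compound. Reactions were acid-stopped and charcoal-treated; radioactivity was counted and fitted to a sigmoidal dose-response curve.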

SCD1 [4] = target: T1, SCD1 (Homo sapiens (Human), UniProt O00767); assay: SCD1 13C-palmitic acid assay in A431 cells; format: cell-based; details: read-out: A431 cells 13C-PA IC50
In short: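 A431 cells with 0.05 mg/mL human insulin in 0.1% fatty-acid-free BSA assay medium; 4 h incubation at 37 °C before KOH saponification with D4-palmitate internal standard.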

SCD1 [5] = target: T1, SCD1; assay: SCD1 14C-palmitate assay in A431 cells; format: cell-based; details: read-out: A431 cells 14C-PA IC50
Experimental: Human epithelial carcinoma A431 cells were seeded at 400,000 cells per well in 48-well tissue culture plate and treated with 2 cycles of fasting in low glucose medium (DMEM, Cellgro#10-014-CV, 1 g/L glucose, 2% Charcoal Filtered FBS) for 24 hours; and re-feeding with high glucose medium for 24 hours (DMEM, Cellgro#10-013-CM, 4.5 g/L glucose, 10% Charcoal Filtered FBS and 0.05 mg/mL Lilly Humulin R, Cat.#, HI-210). Prior to running the assay, the cells were washed twice with high glucose medium (400 μL), followed by addition of 250 μL assay buffer (DMEM, 4.5 g/L glucose, 0.05 mg/mL Human Insulin, 0.1% Fatty Acid Free BSA) to each well. Then, 100 μL of assay buffer containing 20 μM Palmitic Acid, 0.05 μCi ^14C Palmitic Acid (Perkin Elmer, NEC075H) and test compound (at selected concentration) was added to each well. The cells were then Incubated at 37° C. and 5% CO2 tissue culture incubator for 4 hours, followed by extensive washes with pre-chilled PBS. The cell plates were then frozen at −20° C. overnight. After thawing out the plates, 100 μL of 1N KOH was added to each well and the plates were incubated at 37° C. for 30 mins. Cell lysates were transferred to 1 mL Eppendorf tubes and incubated at 95° C. for 1 hour, followed by addition of 10 μL formic acid and 220 μL acetonitrile. The tubes were then centrifuged at 12,000 rpm and the supernatant dried under N2 for 2-3 hours. Dried extract was re-suspended in 60 μL hexane and loaded onto TLC plates (pre-coated with 10% AgNO3 in acetonitrile). The TLC plates were placed into glass running chamber containing 200 mL running solution (100 mL running solution: 92.5 mL chloroform, 6 mL methanol, 750 μL acetic acid, 750 μL dH2O). After running, the TLC plates were air dried and scanned on Bioscan AR-2000 for quantification of ^14C-palmitioleate and ^14C-palmitate peaks. Area under the curve of the peaks were used to calculate product/substrate ratio, an index of SCD1 activity.

[6] = 1 μM test compound, rat liver microsomes

SCD1 (Rattus norvegicus (Rat), UniProt P07308), sequence (P07308 whole entry): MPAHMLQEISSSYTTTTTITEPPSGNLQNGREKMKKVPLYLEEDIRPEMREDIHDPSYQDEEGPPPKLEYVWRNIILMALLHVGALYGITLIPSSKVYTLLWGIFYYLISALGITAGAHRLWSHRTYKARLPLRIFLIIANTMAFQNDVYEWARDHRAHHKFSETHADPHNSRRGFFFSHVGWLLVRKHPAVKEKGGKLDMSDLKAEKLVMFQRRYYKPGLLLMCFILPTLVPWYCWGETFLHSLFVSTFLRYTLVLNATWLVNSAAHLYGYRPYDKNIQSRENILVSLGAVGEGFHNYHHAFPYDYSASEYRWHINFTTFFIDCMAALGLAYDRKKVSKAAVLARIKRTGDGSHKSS
T1 sequence (O00767 whole entry): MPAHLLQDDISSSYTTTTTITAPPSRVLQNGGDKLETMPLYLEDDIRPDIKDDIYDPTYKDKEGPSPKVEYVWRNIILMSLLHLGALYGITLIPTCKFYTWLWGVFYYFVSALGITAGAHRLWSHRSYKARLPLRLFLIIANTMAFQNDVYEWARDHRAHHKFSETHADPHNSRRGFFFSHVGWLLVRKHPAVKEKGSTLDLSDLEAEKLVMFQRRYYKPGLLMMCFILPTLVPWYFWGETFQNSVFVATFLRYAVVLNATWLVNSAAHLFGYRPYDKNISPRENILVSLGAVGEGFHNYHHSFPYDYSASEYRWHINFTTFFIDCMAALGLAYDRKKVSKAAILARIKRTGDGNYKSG

For `Cn1cc(-c2ccc(N3CCC(N4CCc5ccc(F)cc54)CC3)nn2)cn1` [Compound #11, 6-fluoro-1-(1-(6-(1-methyl-1H-pyrazol-4-yl)pyridazin-3-yl)piperidin-4-yl)indoline], the “Body Weight Day 1” value ([1]; 1 mg/kg q.d.) was 373 ± 7 grams, the “Body Weight Day 8” value ([1]; 1 mg/kg q.d.) was 404 ± 13 grams and the “Body Weight Day 15” value ([1]; 1 mg/kg q.d.) was 442 ± 12 grams. The “Body Weight Day 22” value ([1]; 1 mg/kg q.d.) was 482 ± 10 grams, the “Body Weight Day 26” value ([1]; 1 mg/kg q.d.) was 496 ± 10 grams and the “Body Weight Day 1” value ([1]; 3 mg/kg q.d.) was 372 ± 6 grams. For the same compound, the “Body Weight Day 8” value ([1]; 3 mg/kg q.d.) was 417 ± 7 grams, the “Body Weight Day 15” value ([1]; 3 mg/kg q.d.) was 452 ± 6 grams and the “Body Weight Day 22” value ([1]; 3 mg/kg q.d.) was 484 ± 6 grams. The “Body Weight Day 26” value ([1]; 3 mg/kg q.d.) was 498 ± 6 grams, the “Body Weight Day 1” value ([1]; 10 mg/kg q.d.) was 373 ± 5 grams and the “Body Weight Day 8” value ([1]; 10 mg/kg q.d.) was 402 ± 6 grams. The “Body Weight Day 15” value ([1]; 10 mg/kg q.d.) was 430 ± 7 grams, the “Body Weight Day 22” value ([1]; 10 mg/kg q.d.) was 445 ± 9 grams and the “Body Weight Day 26” value ([1]; 10 mg/kg q.d.) was 451 ± 9 grams. The body weight change [2] was −2.1 ± 0.3 *.

With `OCc1cnn(-c2ccc(N3CCC(N4CCc5ccc(F)cc54)CC3)nn2)c1` [Compound #22] the IC50 (SCD1 [3]; rat liver microsomes) was 22 nM and 11 nM, the inhibition at 1 µM (SCD1 [3]) was 98% and the IC50 (SCD1 [4]) was 7 nM and 5 nM. The body weight change [2] was 1.2 ± 0.3 *.

`OCc1ccc(-c2ccc(N3CCC(N4CCc5ccc(F)cc54)CC3)nn2)cn1` [Compound #39] gave an inhibition at 1 µM (SCD1 [3]; [6]) of 99%, an IC50 (SCD1 [3]; rat liver microsomes) of 9 nM and an IC50 (SCD1 [4]) of 0.5 nM. For the same compound, the body weight change [2] was −2.2 ± 0.5 *.

With `Cn1cc(-c2ccc(N3CCC(n4ncc5ccc(F)cc54)CC3)nn2)cn1` [Compound #47, 6-fluoro-1-(1-(6-(1-methyl-1H-pyrazol-4-yl)pyridazin-3-yl)piperidin-4-yl)-1H-indazole] the IC50 (SCD1 [4]) was 69 nM and 33 nM and the body weight change [2] was −3.3 ± 0.5 *.

In the case of `OCCn1cc(-c2ccc(N3CCC(N4CCc5ccc(F)cc54)CC3)nn2)cn1` [Compound #49, 2-(4-(6-(4-(6-fluoroindolin-1-yl)piperidin-1-yl)pyridazin-3-yl)-1H-pyrazol-1-yl)ethanol], the “% Inh.@ 1 μM” value (SCD1 [3]; [6]) is reported as 91%, the inhibition at 1 µM (SCD1 [3]; [6]) is reported as 95% and the IC50 (SCD1 [3]; rat liver microsomes) is reported as 25 nM and 19 nM. The IC50 (SCD1 [4]) was 21 nM and 22 nM and the body weight change [2] was 0.5 ± 0.1 *.

For `NNC(=O)c1ccc(N2CCC(c3noc4ccc(F)cc34)CC2)nn1` [Compound I1, 6-(4-(5-fluorobenzo[d]isoxazol-3-yl)piperidin-1-yl)pyridazine-3-carbohydrazide], the inhibition at 1 µM (SCD1 [3]; [6]) was 100%, the IC50 (SCD1 [3]; rat liver microsomes) was 59 nM and the IC50 (SCD1 [4]) was > 3000 nM. The IC50 (SCD1 [5]) was 3060 nM.
